Test results: PMC12648313, “Enhancing the Efficacy, Utility, and Throughput of the Transcription Block Survival Peptide Library Screening Platform” (JACS Au, 2025)

What was measured:
[1] = molecular target: T1, cJun-TRE complex (Homo sapiens, UniProt P05412); assay: FP antagonism assay cJun-TRE; type: biochemical
T1 construct: In the case of the CREB1 and cJun bZIP domains

[2] = ATF2W alone; 222 nm, 1 to 95 °C, pH 7.4, 10 mM TCEP.HCl; two-state model
Method: (DMF). Deprotection was performed by addition of 0.75 mL 30% pyrrolidine into the coupling reaction. Peptides were acetylated at the N-terminus by a final reaction with 3x acetic anhydride, 4.5x diisopropylethylamine in DMF for one hour at room temperature. Incubation in a cleavage mixture (95% TFA, 2.5% triisopropylsilane, 2.5% H2O, 10 mL) for 4 h at room temperature cleaved the peptide from the resin and removed side chain protecting groups.
2.5% DODT was added to the cleavage cocktail for ATF2. The resin was removed by filtration and cleaved peptides were precipitated in diethyl ether at -80°C and centrifuged.
This pellet was washed a further four times with diethyl ether before it was dried overnight at room temperature. Peptides were resuspended in 1:1 water:acetonitrile (0.1% TFA) before purification using RP-HPLC with a Jupiter Proteo column (4-μm particle size, 90 Å pore size, 250 × 10 mm; Phenomenex) using a water:acetonitrile gradient (0.1% TFA). Peptide masses and purity (>95%) were verified by electrospray ionisation mass spectrometry. Upon solubilising in buffer, peptides were centrifuged to ensure insoluble/aggregated material was removed before peptide concentration determination.
Circular Dichroism: An Applied Photophysics Chirascan was used for CD measurements, with a 200 µL sample in a 1 mm path length CD cell. […]

[3] = molecular target: T2, ATF2 (Homo sapiens, UniProt P15336); assay: Circular dichroism spectra; type: binding; details: pH 7.4
T2 construct: human ATF2 bZIP domain spans from Asp352 to Gln410; made in house; host or cells: chemical synthesis (Fmoc solid-phase peptide synthesis), no expression host
T2 sequence (P15336 352-410): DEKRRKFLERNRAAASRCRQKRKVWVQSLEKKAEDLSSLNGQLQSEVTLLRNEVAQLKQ
From the text: removed before peptide concentration determination.
Peptide samples were suspended in 20

Substance: Ac-LEQQLEELAQENEELEKEAAELQQQIARLKNEVAKLENENKTLDREIKALQREYSHKSD-NH2 [ATF2W]
- fold selectivity for ATF2 over cJun ([1]; FP IC50, cJun-TRE vs ATF2-CRE): ~3 -fold
- IC50 ([1]; FP, FAM-TRE DNA, equivalent experiment, pH 7.4): 1850 ± 213 nM
- Tm [2]: 37 °C
- increase in helicity upon mixing, relative to the average ([3]; 1:1 mixture with ATF2 (5 μM each) vs average of individual components (10 μM each), 20 mM potassium phosphate, 150 mM potassium fluoride, 10 mM TCEP.HCl, 222 nm): 32%
- 222/208 ratio of heterodimer spectrum ([3]; 1:1 mixture with ATF2 (5 μM each)): 0.8
